In the supplement of paper PMC13380429:

How the values were obtained:
A549-ACE2 [1] = experiment: drug-induced phospholipidosis relative to tamoxifen; higher = more phospholipidosis
[2] = test system: A549-ACE2 infected with SARS-CoV-2; experiment: SARS-CoV-2 infection rate relative to DMSO; higher = more infection; conditions: 24 h
U2OS [3] = experiment: relative viability EC50 (midpoint between 100% and the lowest measured viability); higher = less toxic; conditions: 72 h
Calu-3 [4] = experiment: as above; conditions: 72 h
Caco-2 [5] = experiment: as above; conditions: 72 h
HepG2 [6] = experiment: as above; conditions: 72 h
Vero E6 [7] = experiment: as above; conditions: 72 h
U2OS [8] = experiment: cell viability relative to DMSO; higher = less toxic; conditions: 72 h
Calu-3 [9] = experiment: as above; conditions: 72 h
Caco-2 [10] = experiment: as above; conditions: 72 h
HepG2 [11] = experiment: as above; conditions: 72 h
Vero E6 [12] = experiment: as above; conditions: 72 h
U2OS [13] = experiment: drug sensitivity score (DSS) for viability; higher = more toxic; extreme values may be limits of the assay; conditions: 72 h
Calu-3 [14] = experiment: as above; conditions: 72 h
Caco-2 [15] = experiment: as above; conditions: 72 h
HepG2 [16] = experiment: as above; conditions: 72 h
Vero E6 [17] = experiment: as above; conditions: 72 h
[18] = test system: A549-ACE2 infected with SARS-CoV-2; experiment: cell count relative to DMSO; higher = less toxic; conditions: 24 h
A549-ACE2 [19] = experiment: phospholipidosis EC50; higher = less potent phospholipidosis inducer
[20] = test system: A549-ACE2 infected with SARS-CoV-2; experiment: morphology score (similarity to uninfected cells); higher = more like uninfected cells; conditions: 24 h

COc1cccc(CCc2ccccc2OCC[C@@H]2C[C@@H](O)CN2C)c1
drug-induced phospholipidosis [%], A549-ACE2 [1]
Conditions	0.3 µM	0.833333 µM	3.33333 µM	6.66667 µM	10 µM	30 µM
24 h	0.95	6.59	62.7	89.3	95.1	128
48 h	5.49	6.45	45.9	81.8	98.6	139
72 h	4.74	4.21	42.1	79.5	98.4	166

Conditions	SARS-CoV-2 infection rate [%]	cell count [%]	cell viability [%]	morphology score	phospholipidosis EC50 [µM]
A549-ACE2 [19], 24 h	–	–	–	–	4.19
A549-ACE2 [19], 48 h	–	–	–	–	6.86
A549-ACE2 [19], 72 h	–	–	–	–	13.6
Caco-2 [10], 1 nM	–	–	96.1	–	–
Caco-2 [10], 10 nM	–	–	97.4	–	–
Caco-2 [10], 100 nM	–	–	104	–	–
Caco-2 [10], 1000 nM	–	–	85.9	–	–
Caco-2 [10], 10000 nM	–	–	90	–	–
Calu-3 [9], 1 nM	–	–	101	–	–
Calu-3 [9], 10 nM	–	–	92.9	–	–
Calu-3 [9], 100 nM	–	–	97.2	–	–
Calu-3 [9], 1000 nM	–	–	91.6	–	–
Calu-3 [9], 10000 nM	–	–	80.2	–	–
HepG2 [11], 1 nM	–	–	86.5	–	–
HepG2 [11], 10 nM	–	–	91.3	–	–
HepG2 [11], 100 nM	–	–	85.7	–	–
HepG2 [11], 1000 nM	–	–	96.8	–	–
HepG2 [11], 10000 nM	–	–	74.2	–	–
U2OS [8], 1 nM	–	–	101	–	–
U2OS [8], 10 nM	–	–	98.4	–	–
U2OS [8], 100 nM	–	–	100	–	–
U2OS [8], 1000 nM	–	–	98.3	–	–
U2OS [8], 10000 nM	–	–	92.9	–	–
Vero E6 [12], 1 nM	–	–	105	–	–
Vero E6 [12], 10 nM	–	–	102	–	–
Vero E6 [12], 100 nM	–	–	97.5	–	–
Vero E6 [12], 1000 nM	–	–	98.8	–	–
Vero E6 [12], 10000 nM	–	–	84.9	–	–
[2], 0.3 µM	105	–	–	–	–
[2], 3 µM	62	–	–	–	–
[2], 10 µM	22	–	–	–	–
[2], 30 µM	20	–	–	–	–
[18], 0.3 µM	–	97	–	–	–
[18], 3 µM	–	111	–	–	–
[18], 10 µM	–	119	–	–	–
[18], 30 µM	–	99	–	–	–
[20], 0.3 µM	–	–	–	-0.09	–
[20], 3 µM	–	–	–	0.68	–
[20], 10 µM	–	–	–	0.87	–
[20], 30 µM	–	–	–	0.46	–

Conditions	drug sensitivity score	relative viability EC50 [µM]
Caco-2 [5]	–	> 10
Caco-2 [15]	1	–
Calu-3 [4]	–	> 10
Calu-3 [14]	0.9	–
HepG2 [6]	–	> 10
HepG2 [16]	0	–
U2OS [3]	–	> 10
U2OS [13]	0	–
Vero E6 [7]	–	> 10
Vero E6 [17]	0.3	–

CCOc1ccc(-c2nc(-c3cccc4c3CCC4NCCO)no2)cc1OCC (stereo not given) [CYM-5442]
drug-induced phospholipidosis [%], A549-ACE2 [1]
Conditions	0.3 µM	0.833333 µM	3.33333 µM	6.66667 µM	10 µM	30 µM
24 h	3.28	18.4	62.3	81.5	100	87.8
48 h	3.02	11.2	44.6	72.9	96	93.9
72 h	0.284	11.6	36.7	67.4	106	99.3

Conditions	SARS-CoV-2 infection rate [%]	cell count [%]	cell viability [%]	morphology score	phospholipidosis EC50 [µM]
A549-ACE2 [19], 24 h	–	–	–	–	2.26
A549-ACE2 [19], 48 h	–	–	–	–	3.87
A549-ACE2 [19], 72 h	–	–	–	–	4.72
Caco-2 [10], 1 nM	–	–	91	–	–
Caco-2 [10], 10 nM	–	–	96.9	–	–
Caco-2 [10], 100 nM	–	–	102	–	–
Caco-2 [10], 1000 nM	–	–	99.2	–	–
Caco-2 [10], 10000 nM	–	–	71.7	–	–
Calu-3 [9], 1 nM	–	–	94.6	–	–
Calu-3 [9], 10 nM	–	–	95.2	–	–
Calu-3 [9], 100 nM	–	–	91.2	–	–
Calu-3 [9], 1000 nM	–	–	104	–	–
Calu-3 [9], 10000 nM	–	–	92.8	–	–
HepG2 [11], 1 nM	–	–	97.5	–	–
HepG2 [11], 10 nM	–	–	101	–	–
HepG2 [11], 100 nM	–	–	90.5	–	–
HepG2 [11], 1000 nM	–	–	97.2	–	–
HepG2 [11], 10000 nM	–	–	78.8	–	–
U2OS [8], 1 nM	–	–	99	–	–
U2OS [8], 10 nM	–	–	95.7	–	–
U2OS [8], 100 nM	–	–	103	–	–
U2OS [8], 1000 nM	–	–	97	–	–
U2OS [8], 10000 nM	–	–	90.5	–	–
Vero E6 [12], 1 nM	–	–	90.7	–	–
Vero E6 [12], 10 nM	–	–	102	–	–
Vero E6 [12], 100 nM	–	–	84.5	–	–
Vero E6 [12], 1000 nM	–	–	94.7	–	–
Vero E6 [12], 10000 nM	–	–	99.1	–	–
[2], 0.3 µM	96	–	–	–	–
[2], 3 µM	55	–	–	–	–
[2], 10 µM	13	–	–	–	–
[2], 30 µM	19	–	–	–	–
[18], 0.3 µM	–	100	–	–	–
[18], 3 µM	–	118	–	–	–
[18], 10 µM	–	113	–	–	–
[18], 30 µM	–	104	–	–	–
[20], 0.3 µM	–	–	–	0.19	–
[20], 3 µM	–	–	–	0.72	–
[20], 10 µM	–	–	–	0.84	–
[20], 30 µM	–	–	–	0.63	–

Conditions	drug sensitivity score	relative viability EC50 [µM]
Caco-2 [15]	1.3	–
Calu-3 [4]	–	> 10
Calu-3 [14]	0	–
HepG2 [6]	–	> 10
HepG2 [16]	1.1	–
U2OS [3]	–	> 10
U2OS [13]	0	–
Vero E6 [7]	–	> 10
Vero E6 [17]	0	–
